According to patent US9944654B2, “Nargenicin compounds and uses thereof as antibacterial agents” (priority 2014, dated 2018):
Values after ≈ are worked out from the molar mass of the structure shown. Read-outs that look alike come from different tables or passages of the source.

Columns and labels:
[1] = tested on: Escherichia coli MB5747 (LS 883, tolC); assay: microbe, parasite or virus in culture; type: cell-based; conditions: Escherichia coli, read-out: E. coli LS883 tolC (MIC), MHII broth; * = some reduction of growth versus control at […]
[2] = tested on: Staphylococcus aureus MB6266 (MRSA COL); assay: Nargenicin antibacterial assay (MIC), S. aureus; type: cell-based; conditions: Staphylococcus aureus, MRSA, read-out: S. aureus COL (MIC), MHII broth + 50% human serum; * = some reduction of growth versus control at […]
[3] = tested on: Pseudomonas aeruginosa MB5890 (CB1101, efflux-deleted); assay: microbe, parasite or virus in culture; type: cell-based; conditions: Pseudomonas aeruginosa, read-out: P. aeruginosa MB5890 efflux-del (MIC), MHII broth; * = some reduction of growth versus control at […]
[4] = target: T1, E. coli DnaE (DNA polymerase III α-subunit from Escherichia coli) (Escherichia coli, UniProt P10443); assay: In vitro DnaE single enzyme assay (E. coli); type: biochemical
T1 construct: EcDnaE (E. coli DnaE residues 1-1160); 6xHis (N); made in house; host or cells: E. coli BL21(DE3)
How it was run: (§1)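 His-tagged E. coli DnaE (residues 1-1160, 0.8 μg/ml) or S. aureus DnaE (residues 1-1065, 0.05 μg/ml) incubated 30 min at 30° C. with activated calf thymus DNA, 0.025 mM dATP/dGTP/dCTP and 0.011 mM 3H-dTTP in Tris pH 7.5/Mg acetate. TCA-precipitated labelled DNA counted.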

[5] = target: T2, S. aureus DnaE (DNA polymerase III α-subunit homolog from Staphylococcus aureus) (Staphylococcus aureus, UniProt Q5HF71); assay: biochemical; type: biochemical
T2 construct: SaDnaE (S. aureus DnaE residues 1-1065); 6xHis (N); made in house; host or cells: E. coli BL21-AI
T2 sequence (Q5HF71 1-1065): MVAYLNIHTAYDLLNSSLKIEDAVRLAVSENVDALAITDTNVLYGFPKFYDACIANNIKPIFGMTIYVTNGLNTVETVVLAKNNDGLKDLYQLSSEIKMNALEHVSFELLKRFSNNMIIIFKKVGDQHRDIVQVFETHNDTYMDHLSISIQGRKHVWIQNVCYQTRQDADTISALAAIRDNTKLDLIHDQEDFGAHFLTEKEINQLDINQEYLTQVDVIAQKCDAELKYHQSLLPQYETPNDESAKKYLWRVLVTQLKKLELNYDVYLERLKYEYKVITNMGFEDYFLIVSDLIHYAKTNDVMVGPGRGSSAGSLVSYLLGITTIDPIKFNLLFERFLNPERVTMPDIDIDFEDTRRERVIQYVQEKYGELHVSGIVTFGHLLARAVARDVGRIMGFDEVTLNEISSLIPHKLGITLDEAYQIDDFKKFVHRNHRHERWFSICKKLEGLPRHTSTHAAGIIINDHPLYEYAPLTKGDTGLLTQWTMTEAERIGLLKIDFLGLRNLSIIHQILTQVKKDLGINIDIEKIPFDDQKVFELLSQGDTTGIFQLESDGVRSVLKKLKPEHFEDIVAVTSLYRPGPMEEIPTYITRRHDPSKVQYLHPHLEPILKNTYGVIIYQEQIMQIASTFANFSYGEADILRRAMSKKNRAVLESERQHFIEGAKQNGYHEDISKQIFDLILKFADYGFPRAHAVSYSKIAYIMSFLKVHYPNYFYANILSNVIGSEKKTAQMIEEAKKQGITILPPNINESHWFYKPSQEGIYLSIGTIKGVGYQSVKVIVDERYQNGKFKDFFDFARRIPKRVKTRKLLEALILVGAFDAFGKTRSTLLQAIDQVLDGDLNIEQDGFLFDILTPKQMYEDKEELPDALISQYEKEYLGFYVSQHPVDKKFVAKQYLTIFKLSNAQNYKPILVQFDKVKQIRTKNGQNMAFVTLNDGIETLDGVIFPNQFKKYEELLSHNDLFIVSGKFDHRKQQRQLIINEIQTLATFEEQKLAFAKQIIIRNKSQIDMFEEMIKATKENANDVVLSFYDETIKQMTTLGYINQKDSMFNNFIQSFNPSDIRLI
How it was run: as §1

[6] = tested on: Streptococcus pneumoniae MB6357 (CL 2883); assay: Nargenicin antibacterial assay (MIC), S. pneumoniae; type: cell-based; conditions: Streptococcus pneumoniae, read-out: S. pneumoniae MB2883 (MIC), Isosensitest broth; * = some reduction of growth versus control at […]
[7] = read-out: E. coli DnaE IC50 (converted)
[8] = read-out: S. aureus DnaE IC50 (converted)

T1 sequence (P10443 whole entry, the tested form may be a part): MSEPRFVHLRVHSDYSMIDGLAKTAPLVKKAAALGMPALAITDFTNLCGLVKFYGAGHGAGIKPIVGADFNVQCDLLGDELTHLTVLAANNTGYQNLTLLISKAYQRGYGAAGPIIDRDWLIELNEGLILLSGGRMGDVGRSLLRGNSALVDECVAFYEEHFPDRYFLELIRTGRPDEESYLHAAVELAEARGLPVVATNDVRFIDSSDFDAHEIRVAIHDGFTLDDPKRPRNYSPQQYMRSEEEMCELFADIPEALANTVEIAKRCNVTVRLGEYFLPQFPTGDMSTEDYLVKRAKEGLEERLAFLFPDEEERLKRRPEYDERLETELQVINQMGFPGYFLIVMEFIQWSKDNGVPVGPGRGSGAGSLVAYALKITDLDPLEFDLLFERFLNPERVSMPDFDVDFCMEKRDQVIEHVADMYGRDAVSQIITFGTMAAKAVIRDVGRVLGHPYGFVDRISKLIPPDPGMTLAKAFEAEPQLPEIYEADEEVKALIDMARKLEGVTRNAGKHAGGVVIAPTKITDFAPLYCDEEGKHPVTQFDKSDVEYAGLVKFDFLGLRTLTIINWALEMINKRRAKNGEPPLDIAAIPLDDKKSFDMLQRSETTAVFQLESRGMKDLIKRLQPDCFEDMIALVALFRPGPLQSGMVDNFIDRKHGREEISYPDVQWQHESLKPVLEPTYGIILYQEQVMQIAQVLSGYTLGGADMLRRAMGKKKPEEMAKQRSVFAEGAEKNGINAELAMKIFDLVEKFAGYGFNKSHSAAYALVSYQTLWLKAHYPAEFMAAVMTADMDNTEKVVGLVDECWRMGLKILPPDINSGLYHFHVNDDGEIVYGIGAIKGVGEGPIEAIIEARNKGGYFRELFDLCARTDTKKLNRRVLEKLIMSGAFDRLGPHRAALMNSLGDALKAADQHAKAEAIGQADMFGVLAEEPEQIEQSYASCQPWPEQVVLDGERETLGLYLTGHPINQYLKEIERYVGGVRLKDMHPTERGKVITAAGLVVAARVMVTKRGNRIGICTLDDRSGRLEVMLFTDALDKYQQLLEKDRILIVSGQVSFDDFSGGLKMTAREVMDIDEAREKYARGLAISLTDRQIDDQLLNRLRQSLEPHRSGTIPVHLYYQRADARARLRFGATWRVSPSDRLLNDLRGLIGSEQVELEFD

| SMILES | MIC [1] [µg/mL] | MIC [2] [µg/mL] | MIC [3] [µg/mL] | IC50 [4, 7] [µM] | IC50 ([5]; S. aureus DnaE IC50) [µM] | MIC [6] [µg/mL] | IC50 ([4]; E. coli DnaE IC50) [µM] | IC50 [5, 8] [µM] |
| --- | --- | --- | --- | --- | --- | --- | --- | --- |
| CCCCCCCCNC(=O)O[C@H](C)[C@H]1OC(=O)[C@@H](OC)C[C@H]2C=C[C@H]3[C@H]4O[C@]2(/C(C)=C/[C@H]1C)[C@@H]3[C@H](O)[C@@H](C)[C@H]4OC(=O)c1ccc[nH]1 [Example 14] | > 128 | > 128 | > 128 | 16.4 | 0.119 | 32 (≈ 47.7 µM) |  |  |
| CO[C@H]1CC2C=C[C@H]3[C@H]4O[C@]2(/C(C)=C/[C@@H](C)[C@@H]([C@@H](C)OC(=O)NCCO)OC1=O)[C@@H]3[C@H](O)[C@@H](C)[C@H]4OC(=O)c1ccc[nH]1 (stereo partly drawn) [Example 15] | 4 (≈ 6.64 µM) | 8 | 128 (≈ 212 µM) | ~183 | < 0.00996 | > 128 |  |  |
| CO[C@H]1CC2C=C[C@H]3[C@H]4O[C@]2(/C(C)=C/[C@@H](C)[C@@H]([C@@H](C)OC(=O)NCC(N)=O)OC1=O)[C@@H]3[C@H](O)[C@@H](C)[C@H]4OC(=O)c1ccc[nH]1 (stereo partly drawn) [Example 16] | 4 (≈ 6.5 µM) | 32 | 128 (≈ 208 µM) |  |  | > 128 | 97.5 | < 0.00975 |
| CO[C@H]1C[C@H]2C=C[C@H]3[C@H]4O[C@]2(/C(C)=C/[C@@H](C)[C@@H]([C@@H](C)OC(=O)NCc2ccc(O)c(O)c2)OC1=O)[C@@H]3[C@H](O)[C@@H](C)[C@H]4OC(=O)c1ccc[nH]1 [Example 17] | 8 (≈ 11.8 µM) | 8 | > 128 | 22 | < 0.00881 | > 128 |  |  |
| CO[C@H]1CC2C=C[C@H]3[C@H]4O[C@]2(/C(C)=C/[C@@H](C)[C@@H]([C@@H](C)OC(=O)NN)OC1=O)[C@@H]3[C@H](O)[C@@H](C)[C@H]4OC(=O)c1ccc[nH]1 (stereo partly drawn) [Example 18] | 4 (≈ 6.97 µM) | 8 | > 128 | 105 | < 0.0105 | 128 (≈ 223 µM) |  |  |
| CO[C@H]1C[C@H]2C=C[C@H]3[C@H]4O[C@]2(/C(C)=C/[C@@H](C)[C@@H]([C@@H](C)OC(=O)N2CCOCC2)OC1=O)[C@@H]3[C@H](O)[C@@H](C)[C@H]4OC(=O)c1ccc[nH]1 [Example 20] | 8 (≈ 12.7 µM) | 8 | > 128 | > 159 | < 0.00954 | 32 (≈ 50.9 µM) |  |  |
| CO[C@H]1C[C@H]2C=C[C@H]3[C@H]4O[C@]2(/C(C)=C/[C@@H](C)[C@@H]([C@@H](C)OC(=O)NC(C)(CO)CO)OC1=O)[C@@H]3[C@H](O)[C@@H](C)[C@H]4OC(=O)c1ccc[nH]1 [Example 21] | 8 (≈ 12.4 µM) | 16 | 128 (≈ 198 µM) | > 155 | < 0.00928 | 128 (≈ 198 µM) |  |  |
| CO[C@H]1C[C@H]2C=C[C@H]3[C@H]4O[C@]2(/C(C)=C/[C@@H](C)[C@@H]([C@@H](C)OC(=O)NNC(N)=O)OC1=O)[C@@H]3[C@H](O)[C@@H](C)[C@H]4OC(=O)c1ccc[nH]1 [Example 23] | 4 (≈ 6.49 µM) | 8 | 64 (≈ 104 µM) | 48.6 | < 0.00973 | > 128 |  |  |
| COC1CC2C=CC3C4OC2(C(C)=CC(C)C(C(C)OC(=O)NCCN2CCN(C)CC2)OC1=O)C3C(O)C(C)C4OC(=O)c1ccc[nH]1 (stereo not drawn) [Example 24] | 32 (≈ 46.7 µM) | 32 | > 128 |  |  | > 128 | > 146 | 0.00876 |
| COC1CC2C=CC3C4OC2(C(C)=CC(C)C(C(C)OC(=O)NCCCN2CCN(C)CC2)OC1=O)C3C(O)C(C)C4OC(=O)c1ccc[nH]1 (stereo not drawn) [Example 25] | 32 (≈ 45.8 µM) | 32 | > 128 |  |  | > 128 | > 143 | 0.03 |
| COC(=O)O[C@H](C)[C@H]1OC(=O)[C@@H](OC)CC2C=C[C@H]3[C@H]4O[C@]2(/C(C)=C/[C@H]1C)[C@@H]3[C@H](O)[C@@H](C)[C@H]4OC(=O)c1ccc[nH]1 (stereo partly drawn) [Example 27] | 4 (≈ 6.97 µM) | 2 | > 128 | 61 | < 0.0105 | 64 (≈ 112 µM) |  |  |
| CO[C@H]1C[C@H]2C=C[C@H]3[C@H]4O[C@]2(/C(C)=C/[C@@H](C)[C@@H]([C@@H](C)OC(=O)OCC(C)(N)CO)OC1=O)[C@@H]3[C@H](O)[C@@H](C)[C@H]4OC(=O)c1ccc[nH]1.O=C(O)C(F)(F)F (stereo partly drawn) [Example 28] | 2 | 2 | 32 | > 131 | ~0.00657 | 128 |  |  |
| CO[C@H]1C[C@H]2C=C[C@H]3[C@H]4O[C@]2(/C(C)=C/[C@@H](C)[C@@H]([C@@H](C)OC(=O)OCCO)OC1=O)[C@@H]3[C@H](O)[C@@H](C)[C@H]4OC(=O)c1ccc[nH]1 [Example 30] | 1 (≈ 1.66 µM) | 0.5 | 16 (≈ 26.5 µM) | 116 | < 0.00994 | 64 (≈ 106 µM) |  |  |
| COC1CC2C=CC3C4OC2(C(C)=CC(C)C(C(C)OC(=O)OCCN(CCO)CCO)OC1=O)C3C(O)C(C)C4OC(=O)c1ccc[nH]1 (stereo not drawn) [Example 32] | 2 (≈ 2.9 µM) | 2 | 64 (≈ 92.6 µM) | > 145 | ~0.00651 | > 128 |  |  |
| CO[C@H]1C[C@H]2C=C[C@H]3[C@H]4O[C@]2(/C(C)=C/[C@@H](C)[C@@H]([C@@H](C)OC(=O)OC(C)C)OC1=O)[C@@H]3[C@H](O)[C@@H](C)[C@H]4OC(=O)c1ccc[nH]1 [Example 33] | > 64 | 32 | > 128 | 58.2 | 0.0349 | 8 (≈ 13.3 µM) |  |  |
| CO[C@H]1C[C@H]2C=C[C@H]3[C@H]4O[C@]2(/C(C)=C/[C@@H](C)[C@@H]([C@@H](C)OC(=O)OCC(CO)CO)OC1=O)[C@@H]3[C@H](O)[C@@H](C)[C@H]4OC(=O)c1ccc[nH]1 [Example 36] | 2 (≈ 3.09 µM) | 2 | 64 (≈ 98.8 µM) | 17 | < 0.00926 | > 128 |  |  |
| CO[C@H]1C[C@H]2CC[C@H]3[C@H]4O[C@]2(/C(C)=C/[C@@H](C)[C@@H]([C@@H](C)O)OC1=O)[C@@H]3[C@H](O)[C@@H](C)[C@H]4OC(=O)c1ccc[nH]1 [Example 37, (3R,4S,7S,8aR,10aR,11R,12R,13R,14R,14aS,14bS,E)-14-hydroxy-4-((R)-1-hydroxyethyl)-7-methoxy-1,3,13-trimethyl-6-oxo-3,4,6,7,8,8a,9,10,10a,11,12,13,14,14a-tetradecahydro-11,14b-epoxynaphtho[2,1-e]oxecin-12-yl 1H-pyrrole-2-carboxylate] | > 8 | > 8 | 128 (≈ 247 µM) |  | < 0.0966 | > 128 | > 193 |  |
